Experimental data as given in BindingDB's records for PubMed 36069713 (China Pharmaceutical University, 2022).
pEC50: −log10 of the molar value.

Test: Agonist activity at STING in STING knockout human THP-1 cells harboring IRF-inducible luciferase reporter construct assessed as increase in relative […] unit incubated for 12 hrs by Quanti-luc reagent based assay

Structure (SMILES): CC[C@H](CC(=O)c1cc2cc(OC)c(OC)cc2[se]1)C(=O)O
- pEC50: < 4.00
